Experiments:
[1] = molecular target: T1, Alpha-1A adrenergic receptor (Rattus norvegicus, UniProt P43140); assay: DRUGMATRIX: Alpha-1A adrenergic receptor radioligand binding (ligand: prazosin); assay type: cell membranes, Wistar, Submaxillary gland, Membrane; settings: Not Active = under 50% inhibition at 10 µM
T1 sequence (P43140 whole entry): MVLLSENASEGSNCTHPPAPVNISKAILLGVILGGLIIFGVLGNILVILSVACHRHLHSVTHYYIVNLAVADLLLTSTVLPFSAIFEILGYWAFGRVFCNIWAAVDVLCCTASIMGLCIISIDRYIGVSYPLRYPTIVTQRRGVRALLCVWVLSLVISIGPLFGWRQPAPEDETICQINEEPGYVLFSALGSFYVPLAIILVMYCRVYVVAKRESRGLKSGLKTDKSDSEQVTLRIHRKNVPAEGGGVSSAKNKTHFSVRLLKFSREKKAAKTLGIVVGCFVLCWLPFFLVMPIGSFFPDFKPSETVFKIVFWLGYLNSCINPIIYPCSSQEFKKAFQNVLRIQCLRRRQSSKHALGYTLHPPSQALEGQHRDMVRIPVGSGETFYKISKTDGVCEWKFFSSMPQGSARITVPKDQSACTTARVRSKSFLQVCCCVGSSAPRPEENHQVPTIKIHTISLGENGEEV

[2] = molecular target: T2, Alpha-1D adrenergic receptor (Homo sapiens, UniProt P25100); assay type: cell membranes, HEK293, Membrane; further: in other assays of this panel Not Active means under 50% inhibition at 10 µM
T2 sequence (P25100 whole entry): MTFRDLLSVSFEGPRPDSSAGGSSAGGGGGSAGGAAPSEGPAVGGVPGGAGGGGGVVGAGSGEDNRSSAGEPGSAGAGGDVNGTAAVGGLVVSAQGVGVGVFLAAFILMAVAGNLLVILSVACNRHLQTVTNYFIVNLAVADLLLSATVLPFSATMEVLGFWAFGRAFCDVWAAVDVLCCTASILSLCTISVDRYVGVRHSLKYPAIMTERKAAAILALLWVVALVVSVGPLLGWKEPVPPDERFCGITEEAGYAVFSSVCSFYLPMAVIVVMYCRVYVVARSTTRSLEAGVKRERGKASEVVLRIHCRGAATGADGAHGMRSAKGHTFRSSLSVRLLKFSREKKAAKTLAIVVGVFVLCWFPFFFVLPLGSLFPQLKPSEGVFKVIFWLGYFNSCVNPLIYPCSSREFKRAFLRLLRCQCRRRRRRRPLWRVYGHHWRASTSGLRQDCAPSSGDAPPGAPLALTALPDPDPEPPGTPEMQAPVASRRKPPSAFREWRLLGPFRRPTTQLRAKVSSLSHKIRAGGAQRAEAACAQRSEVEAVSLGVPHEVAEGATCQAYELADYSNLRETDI

Leukotriene C4 synthase = molecular target: T3, Leukotriene C4 synthase (Cavia porcellus, UniProt A6XA80); assay type: tissue-based, Lung;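 further: enzyme inhibition assay of leukotriene C4 synthase, using LTA4 as the substrate; in other assays of this panel Not Active means under 50% inhibition at 10 µM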
T3 sequence (A6XA80 whole entry): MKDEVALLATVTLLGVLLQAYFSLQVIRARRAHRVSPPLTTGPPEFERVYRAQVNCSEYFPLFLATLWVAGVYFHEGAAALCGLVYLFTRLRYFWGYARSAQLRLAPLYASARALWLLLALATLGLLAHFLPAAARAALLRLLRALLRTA

[3] = molecular target: Delta-type opioid receptor (Homo sapiens, UniProt P41143); assay type: cell membranes, Membrane; settings: hek293; further: in other assays of this panel Not Active means under 50% inhibition at 10 µM
[4] = molecular target: Kappa-type opioid receptor (Homo sapiens, UniProt P41145); assay: DRUGMATRIX: Opiate kappa (OP2, KOP) radioligand binding (ligand: [3H] Diprenorphine); assay type: cell membranes, HEK293, Membrane; settings: hek293; Not Active = under 50% inhibition at 10 µM
Caspase-1 = molecular target: T4, Caspase-1 (Homo sapiens, UniProt P29466); set-up: species or system Escherichia coli;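 further: Caspase-1 enzyme inhibition assay with a peptide substrate; in other assays of this panel Not Active means under 50% inhibition at 10 µM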
T4 sequence (P29466 whole entry): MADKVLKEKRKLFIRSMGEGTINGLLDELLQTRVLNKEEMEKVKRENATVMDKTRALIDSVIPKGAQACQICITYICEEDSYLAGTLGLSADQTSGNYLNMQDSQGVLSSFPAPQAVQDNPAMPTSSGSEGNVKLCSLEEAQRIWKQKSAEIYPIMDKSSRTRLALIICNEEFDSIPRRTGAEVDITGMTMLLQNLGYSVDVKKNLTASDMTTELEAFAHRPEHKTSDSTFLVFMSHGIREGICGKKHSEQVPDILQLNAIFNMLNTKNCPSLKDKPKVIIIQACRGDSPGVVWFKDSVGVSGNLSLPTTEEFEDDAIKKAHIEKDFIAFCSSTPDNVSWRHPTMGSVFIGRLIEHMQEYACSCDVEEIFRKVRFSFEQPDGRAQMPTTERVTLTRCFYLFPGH

[5] = molecular target: Matrix metalloproteinase-9 (Homo sapiens, UniProt P14780); assay: biochemical; assay type: cell-based
Chain of Matrix metalloproteinase-9 (P14780 whole entry): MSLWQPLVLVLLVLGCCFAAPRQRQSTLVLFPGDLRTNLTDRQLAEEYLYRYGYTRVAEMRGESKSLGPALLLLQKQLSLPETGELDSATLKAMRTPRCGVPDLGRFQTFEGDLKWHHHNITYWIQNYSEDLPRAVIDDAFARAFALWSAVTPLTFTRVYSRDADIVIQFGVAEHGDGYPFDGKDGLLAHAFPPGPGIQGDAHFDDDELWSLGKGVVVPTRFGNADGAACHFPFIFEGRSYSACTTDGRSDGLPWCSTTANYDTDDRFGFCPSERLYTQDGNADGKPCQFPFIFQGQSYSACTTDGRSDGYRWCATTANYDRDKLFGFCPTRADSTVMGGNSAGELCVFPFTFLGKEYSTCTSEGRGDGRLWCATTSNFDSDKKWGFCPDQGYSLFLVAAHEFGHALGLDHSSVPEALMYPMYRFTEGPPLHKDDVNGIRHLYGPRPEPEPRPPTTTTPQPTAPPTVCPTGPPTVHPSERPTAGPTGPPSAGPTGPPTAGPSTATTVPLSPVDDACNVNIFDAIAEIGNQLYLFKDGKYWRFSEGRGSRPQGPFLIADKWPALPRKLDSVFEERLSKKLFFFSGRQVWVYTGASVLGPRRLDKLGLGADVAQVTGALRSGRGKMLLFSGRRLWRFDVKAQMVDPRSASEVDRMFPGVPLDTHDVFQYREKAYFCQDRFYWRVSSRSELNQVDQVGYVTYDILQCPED

Chain of Delta-type opioid receptor (P41143 whole entry): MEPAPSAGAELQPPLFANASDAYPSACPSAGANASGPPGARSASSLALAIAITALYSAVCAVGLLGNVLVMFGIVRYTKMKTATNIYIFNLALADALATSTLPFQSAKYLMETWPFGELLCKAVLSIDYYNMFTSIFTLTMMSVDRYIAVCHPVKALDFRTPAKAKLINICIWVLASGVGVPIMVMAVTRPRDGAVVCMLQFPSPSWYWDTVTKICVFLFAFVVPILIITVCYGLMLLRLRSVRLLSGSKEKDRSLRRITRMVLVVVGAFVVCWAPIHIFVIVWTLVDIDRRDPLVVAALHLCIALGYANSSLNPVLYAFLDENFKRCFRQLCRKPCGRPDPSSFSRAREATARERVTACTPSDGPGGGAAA
Chain of Kappa-type opioid receptor (P41145 whole entry): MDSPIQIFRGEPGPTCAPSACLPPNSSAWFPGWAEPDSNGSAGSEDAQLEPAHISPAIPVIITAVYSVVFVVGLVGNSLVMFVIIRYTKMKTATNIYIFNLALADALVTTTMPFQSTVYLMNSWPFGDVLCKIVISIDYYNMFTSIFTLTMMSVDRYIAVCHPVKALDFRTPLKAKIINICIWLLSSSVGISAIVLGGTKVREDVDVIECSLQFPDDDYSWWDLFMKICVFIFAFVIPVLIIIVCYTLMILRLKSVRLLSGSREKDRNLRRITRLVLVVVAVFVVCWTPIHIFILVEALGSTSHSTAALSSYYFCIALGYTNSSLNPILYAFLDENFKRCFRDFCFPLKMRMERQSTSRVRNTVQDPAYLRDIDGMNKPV

CCN1CCC[C@H]1CNC(=O)c1cc(S(N)(=O)=O)ccc1OC [LEVOSULPIRIDE]
Not Active: IC50 [1] | IC50 ([2]; hek293) | IC50 (Leukotriene C4 synthase) | IC50 [3] | IC50 [4] | IC50 (Caspase-1) | IC50 [5]

CCN(CC)CC(=O)Nc1c(C)cccc1C [LIDOCAINE]
Not Active: IC50 [1] | IC50 ([2]; hek293) | IC50 (Leukotriene C4 synthase) | IC50 [3] | IC50 [4] | IC50 (Caspase-1) | IC50 [5]

CC(c1cc2ccccc2s1)N(O)C(N)=O (centres undefined) [ZILEUTON]
Not Active: IC50 [1] | IC50 ([2]; hek293) | IC50 (Leukotriene C4 synthase) | IC50 [3] | IC50 [4] | IC50 (Caspase-1) | IC50 [5]

CCCCNc1ccc(C(=O)OCCN(C)C)cc1 [TETRACAINE]
Not Active: IC50 [1] | IC50 ([2]; hek293) | IC50 (Leukotriene C4 synthase) | IC50 [3] | IC50 [4] | IC50 (Caspase-1) | IC50 [5]

CNCCC(Oc1ccc(C(F)(F)F)cc1)c1ccccc1 (centres undefined) [FLUOXETINE]
Not Active: IC50 [1] | IC50 ([2]; hek293) | IC50 (Leukotriene C4 synthase) | IC50 [3] | IC50 [4] | IC50 (Caspase-1) | IC50 [5]

Cc1ccc(NC(=O)c2ccc(CN3CCN(C)CC3)cc2)cc1Nc1nccc(-c2cccnc2)n1 [IMATINIB]
Not Active: IC50 [1] | IC50 ([2]; hek293) | IC50 (Leukotriene C4 synthase) | IC50 [3] | IC50 [4] | IC50 (Caspase-1) | IC50 [5]

CO[C@@H]1[C@@H](OC)[C@H](C)[C@@](O)(CC(=O)O)O[C@H]1[C@H](C)[C@H]1O[C@@]2(CC[C@@](C)([C@H]3CC[C@@](C)([C@@H]4O[C@@H]([C@H]5O[C@](C)(O)[C@H](C)C[C@@H]5C)C[C@@H]4O[C@@H]4C[C@H](OC)[C@@H](OC)[C@H](C)O4)O3)O2)C[C@H](O)[C@H]1C [MADURAMICIN ACID]
1.13 µM: IC50 ([2]; read-out: IC50)
3.34 µM: IC50 ([1]; read-out: IC50)
0.554 µM: Ki ([2]; read-out: Ki)
Not Active: IC50 (Leukotriene C4 synthase) | IC50 [3] | IC50 [4] | IC50 (Caspase-1) | IC50 [5]
1.35 µM: Ki ([1]; read-out: Ki)

CC(C)Cc1ccc([C@@H](C)C(=O)O)cc1 [(R)-IBUPROPHEN]
Not Active: IC50 [1] | IC50 ([2]; hek293) | IC50 (Leukotriene C4 synthase) | IC50 [3] | IC50 [4] | IC50 (Caspase-1) | IC50 [5]

NC(=O)N1C(=O)/C(=C(\O)c2cccs2)c2cc(Cl)ccc21 [TENIDAP]
Not Active: IC50 [1] | IC50 ([2]; hek293) | IC50 (Leukotriene C4 synthase) | IC50 [3] | IC50 [4] | IC50 (Caspase-1) | IC50 [5]

O=C1C(CC[S+]([O-])c2ccccc2)C(=O)N(c2ccccc2)N1c1ccccc1 (centres undefined) [SULFINPYRAZONE]
Not Active: IC50 [1] | IC50 ([2]; hek293) | IC50 (Leukotriene C4 synthase) | IC50 [3] | IC50 [4] | IC50 (Caspase-1) | IC50 [5]

CO[C@H]1/C=C/O[C@@]2(C)Oc3c(C)c(O)c4c(O)c(c(/C=N/N5CCN(C6CCCC6)CC5)c(O)c4c3C2=O)NC(=O)/C(C)=C\C=C\[C@H](C)[C@H](O)[C@@H](C)[C@@H](O)[C@@H](C)[C@H](OC(C)=O)[C@@H]1C [RIFAPENTINE]
Not Active: IC50 [1] | IC50 ([2]; hek293) | IC50 (Leukotriene C4 synthase) | IC50 [3] | IC50 [4] | IC50 (Caspase-1) | IC50 [5]

Cn1c(=O)c2nc[nH]c2n(C)c1=O.O [THEOPHYLLINE]
Not Active: IC50 [1] | IC50 ([2]; hek293) | IC50 (Leukotriene C4 synthase) | IC50 [3] | IC50 [4] | IC50 (Caspase-1) | IC50 [5]

CCCCOc1cc(CC2CNC(=O)N2)ccc1OC (centres undefined) [RO-201724]
Not Active: IC50 [1] | IC50 ([2]; hek293) | IC50 (Leukotriene C4 synthase) | IC50 [3] | IC50 [4] | IC50 (Caspase-1) | IC50 [5]

N#Cc1ccc(C(c2ccc(C#N)cc2)n2cncn2)cc1 [LETROZOLE]
Not Active: IC50 [1] | IC50 ([2]; hek293) | IC50 (Leukotriene C4 synthase) | IC50 [3] | IC50 [4] | IC50 (Caspase-1) | IC50 [5]

CN(C/C=C/C#CC(C)(C)C)Cc1cccc2ccccc12 [TERBINAFINE]
Not Active: IC50 [1] | IC50 ([2]; hek293) | IC50 (Leukotriene C4 synthase) | IC50 [3] | IC50 [4] | IC50 (Caspase-1) | IC50 [5]

O=C1Nc2ccc(Cl)cc2C(c2ccccc2Cl)=NC1O (centres undefined) [LORAZEPAM]
Not Active: IC50 [1] | IC50 ([2]; hek293) | IC50 (Leukotriene C4 synthase) | IC50 [3] | IC50 [4] | IC50 (Caspase-1) | IC50 [5]

Reference: ChEMBL document CHEMBL1909046, “DrugMatrix in vitro pharmacology data”
